Measured values published in the RepoRT retention time repository.

Experiment: HILIC, Waters ACQUITY UPLC BEH Amide, 100 × 2.1 mm, 1.7 µm; A: water + 0.125% formic acid + 10 mM ammonium formate; B: 5% water + 95% acetonitrile + 0.125% formic acid + 10 mM ammonium formate; gradient (min/%B) 0/100 2/100 7.7/70 9.5/40 10.25/30 12.75/100 17/100
Details: stereoisomer not certain

Row | Compound | LC retention time
1 | O=Cc1cccc(O)c1 [3-Hydroxybenzaldehyde] | 1.18 min
2 | N#CCc1c[nH]c2ccccc12 [3-Indoleacetonitrile] | 8.02 min
3 | Cn1c(=N)ccn(C2OC(CO)C(O)C2O)c1=O (centres undefined) [3-Methylcytidine] | 6.99 min
4 | CC1C(=O)Nc2ccccc21 (centres undefined) [3-Methyloxyindole] | 1.07 min
5 | CSCCCN [3-Methylthiopropylamine] | 5.16 min
6 | Cn1c(=O)ccn(C2OC(CO)C(O)C2O)c1=O (centres undefined) [3-Methyluridine] | 1.12 min
7 | O=C(O)CCP(=O)(O)O [3-Phosphonopropionic acid] | 8.59 min
8 | OCc1cccnc1 [3-Pyridinemthanol] | 1.41 min
9 | CC(C)CCCC(C)C1CCC2C3CC=C4CC(OC(=O)NCCN(C)C)CCC4(C)C3CCC12C (stereo not drawn) [3-beta-Cholest-5-en-3-yl [2-(dimethylamino)ethyl]carbamate] | 2.34 min
10 | O=c1c(-c2ccc(O)cc2)coc2cc(O)cc(O)c12 [4,5,7-Trihydroxyisoflavone] | 1.27 min
11 | Nc1ccc(O)cc1 [4-Aminophenol] | 1.34 min
12 | O=Cc1ccc(O)cc1 [4-Hydroxybenzaldehyde] | 1.18 min
13 | N#CC(O)c1ccc(O)cc1 (centres undefined) [4-Hydroxymandelonitrile] | 2.63 min
14 | O=c1cc[nH]c2ccccc12 [4-Hydroxyquinoline] | 1.69 min
15 | Cc1cc(=O)oc2cc(O)ccc12 [4-Methylumbelliferone] | 1.22 min
16 | O=[N+]([O-])c1cc[n+]([O-])c2ccccc12 [4-Nitroquinoline-N-oxide] | 1.14 min
17 | CSCC1OC(n2cnc3c(N)ncnc32)C(O)C1O (centres undefined) [5'-Methylthioadenosine] | 2.49 min
18 | COCC1OC(n2cc(C)c(=O)[nH]c2=O)CC1O (centres undefined) [5'-O-Methylthymidine] | 1.46 min
19 | CC1CNC(=O)NC1=O (centres undefined) [5,6-Dihydro-5-methyluracil] | 1.57 min
20 | O=C1CCNC(=O)N1 [5,6-Dihydrouracil] | 1.77 min
21 | Cc1cc2nc[nH]c2cc1C [5,6-Dimethylbenzimidazole] | 1.82 min
22 | CC(C)CCCC(C)C1CCC2C3C(O)C=C4CC(O)CCC4(C)C3CCC12C (stereo not drawn) [5-Cholesten-3-beta-7-alpha-diol] | 3.36 min
23 | O=c1ncc(F)c[nH]1 [5-Fluro-2-pyrimidone] | 1.77 min

Row | Compound | LC retention time
24 | Nc1[nH]c(=O)ncc1F [5-Flurocytosine] | 4.62 min
25 | Nc1[nH]c(=O)ncc1CO [5-Hydroxymethylcytosine] | 6.9 min
26 | OCCc1c[nH]c2ccc(O)cc12 [5-Hydroxytryptophol] | 5.93 min
27 | COc1c2ccoc2cc2oc(=O)ccc12 [5-Methoxypsoralen] | 1.07 min
28 | COc1ccc2[nH]cc(CCN)c2c1 [5-Methoxytryptamine] | 4.99 min
29 | COc1ccc2[nH]cc(CCO)c2c1 [5-Methoxytryptophol] | 1.18 min
30 | COc1cn(C2OC(CO)C(O)C2O)c(=O)[nH]c1=O (centres undefined) [5-Methoxyuridine] | 4.72 min
31 | Cc1cnc(=O)[nH]c1N [5-Methylcytosine] | 6.62 min
32 | Cc1cn(C2OC(CO)C(O)C2O)c(=O)[nH]c1=O (centres undefined) [5-Methyluridine] | 4.19 min
33 | CCCCCCCCCOc1ccc2[nH]cc(CCN)c2c1 [5-Nonyloxytryptamine] | 3.4 min
34 | Nc1ccc2cn[nH]c2c1 [6-Aminoindazole] | 1.26 min
35 | O=C(O)CCCCCO [6-Hydroxycaproic acid] | 1.34 min
36 | O=c1cc(-c2ccccc2)oc2ccc(O)cc12 [6-Hydroxyflavone] | 1.26 min
37 | CNc1ncnc2c1ncn2C1OC(CO)C(O)C1O (centres undefined) [6-Methyladenosine] | 3.56 min
38 | CSc1ncnc2nc[nH]c12 [6-Methylmercaptopurine] | 1.49 min
39 | CC(O)C(O)C1=Nc2c(nc(N)[nH]c2=O)NC1 (centres undefined) [7,8-Dihydrobiopterin] | 7.18 min
40 | O=[N+]([O-])c1cccc2cn[nH]c12 [7-Nitroindazole] | 1.03 min
41 | Nc1ncnc2c1[nH]c(=O)n2C1CC(O)C(CO)O1 (centres undefined) [8-Oxo-2-deoxyadenosine] | 5.11 min
42 | CC12CCC3c4ccc(O)cc4CCC3C1CC(OC1OC(C(=O)O)C(O)C(O)C1O)C2O (centres undefined) [16-Glucuronide-estriol] | 6.49 min
43 | CN1C(=O)CCC1c1ccc[n+]([O-])c1 [(S)-Cotinine N-oxide] | 3.87 min
44 | CCCCCC=CCC=CCC=CCC=CCCCC(=O)Nc1ccc(O)cc1 [AM 404] | 0.97 min
45 | CC1OC(OC2C(CO)OC(OC3C(CO)OC(O)C(O)C3O)C(O)C2O)C(O)C(O)C1NC1C=C(CO)C(O)C(O)C1O (centres undefined) [Acarbose] | 9.88 min
46 | CC(=O)Nc1ccc(OC2OC(C(=O)O)C(O)C(O)C2O)cc1 (centres undefined) [Acetaminophen glucuronide] | 7.73 min

Second part, the molecule after the results:

Row | LC retention time | Compound
47 | 7.62 min | CC(O)CC(=O)OC(CC(=O)[O-])C[N+](C)(C)C (centres undefined) [3-Hydroxybutyrylcarnitine]
48 | 7.35 min | Nc1c(O)cccc1C(=O)CC(N)C(=O)O (centres undefined) [3-Hydroxykynurenine]
49 | 1.45 min | O=C(O)Cc1cccc(O)c1 [3-Hydroxyphenylacetic acid]
50 | 7.44 min | NC(Cc1cccc(O)c1)C(=O)O (centres undefined) [3-Hydroxyphenylalanine]
51 | 8.17 min | O=C(O)C1NCCC1O (centres undefined) [3-Hydroxyproline]
52 | 2.55 min | O=C(O)CCCCCCC(O)CC(=O)O (centres undefined) [3-Hydroxysebacic acid]
53 | 1.29 min | CCC(O)CC(=O)O (centres undefined) [3-Hydroxyvaleric acid]
54 | 1.33 min | O=C(O)Cc1c[nH]c2ccccc12 [3-Indoleacetic acid]
55 | 1.28 min | O=C(O)CCc1c[nH]c2ccccc12 [3-Indolepropionic acid]
56 | 2.95 min | CC(C)=CC(=O)NCC(=O)O [3-Methylcrotonylglycine]
57 | 9.41 min | Cn1cncc1CC(N)C(=O)O (centres undefined) [3-Methylhistidine]
58 | 6.88 min | NC(Cc1ccc(O)c([N+](=O)[O-])c1)C(=O)O (centres undefined) [3-Nitrotyrosine]
59 | 8.47 min | CCCCCC(O)CC (centres undefined) [3-Octanol]
60 | 5.64 min | C[Si](C)(C)CCC(=O)O [3-Trimethylsilylpropionic acid]
61 | 5.6 min | NC(=O)NCCC(=O)O [3-Ureidopropionic acid]
62 | 2.26 min | CC(=O)NCCCC(=O)O [4-Acetamidobutyric acid]
63 | 1.24 min | CC(=O)CCCC(=O)O [4-Acetylbutyric acid]
64 | 7.49 min | Nc1ccc(C(=O)O)cc1 [4-Aminobenzoic acid]
65 | 6.6 min | NCC1CCC(C(=O)O)CC1 (centres undefined) [4-Aminomethylcyclohexanecarboxylic acid]
66 | 7.72 min | NC(N)=NCCCC(=O)O [4-Guanidinobutyric acid]
67 | 1.63 min | CCCCCCc1ccc(O)cc1O [4-Hexylresorcinol]
68 | 4.88 min | CC(=O)CC(C)(C)O [4-Hydroxy-4-methyl-2-pentanone]
69 | 1.47 min | Cc1cc(O)cc(=O)o1 [4-Hydroxy-6-methyl-2-pyrone]
70 | 5.86 min | O=C(O)CNC(=O)c1ccc(O)cc1 [4-Hydroxyhippuric acid]

Row | LC retention time | Compound
71 | 1.07 min | CCCCCC(O)C=CC=O (centres undefined) [4-Hydroxynonenal]
72 | 1.21 min | Cc1ncsc1CCO [4-Methyl-5-thiazoleethanol]
73 | 1.06 min | CC(=O)Oc1ccc2c(C)cc(=O)oc2c1 [4-Methylumbelliferyl acetate]
74 | 2.66 min | Cc1ncc(CO)c(C(=O)O)c1O [4-Pyridoxic acid]
75 | 4.58 min | O=C(O)c1ccnc2ccccc12 [4-Quinolinecarboxylic acid]
76 | 2.27 min | O=c1[nH]c(=S)ccn1C1OC(CO)C(O)C1O (centres undefined) [4-Thiouridine]
77 | 7.66 min | C[N+](C)(C)CCCC(=O)O [4-Trimethylammoniobutanoic acid]
78 | 4.18 min | NC(=O)c1[nH]cnc1N [5-Aminoimidazole-4-carboxamide]
79 | 7.24 min | NCCCCC(=O)O [5-Aminovaleric acid]
80 | 1.78 min | O=C(O)Cc1c[nH]c2ccc(O)cc12 [5-Hydroxy-3-indoleacetic acid]
81 | 7.54 min | Nc1nc(=O)n(C2OC(CO)C(O)C2O)cc1CO (centres undefined) [5-Hydroxymethylcytidine]
82 | 7.48 min | NC(Cc1c[nH]c2ccc(O)cc12)C(=O)O (centres undefined) [5-Hydroxytryptophan]
83 | 1.32 min | COc1ccc2[nH]cc(CC(=O)O)c2c1 [5-Methoxy-3-indoleacetic acid]
84 | 1.98 min | Cc1cn(C2OC(CO)C(O)C2O)c(=S)[nH]c1=O (centres undefined) [5-Methyl-2-thiouridine]
85 | 2.6 min | Cc1cn(C2OC(CO)CC2O)c(=O)[nH]c1=O (centres undefined) [5-Methyl-3-deoxyuridine]
86 | 6.39 min | Cc1cn(C2OC(CO)C(O)C2O)c(=O)nc1N (centres undefined) [5-Methylcytidine]
87 | 4.31 min | O=c1cnn(C2OC(CO)C(O)C2O)c(=O)[nH]1 (centres undefined) [6-Azuridine]
88 | 7.3 min | CC(C)=CCCC(C)O (centres undefined) [6-Methyl-5-hepten-2-ol]
89 | 7.34 min | Cn1c[n+](C2OC(CO)C(O)C2O)c2nc(N)[nH]c(=O)c21 (centres undefined) [7-Methylguanosine]
90 | 2.02 min | O=C(O)CC1C(=O)Nc2ccccc21 (centres undefined) [(2-oxo-2,3-dihydro-1H-indol-3-yl)acetic acid]
91 | 5.77 min | CCCC(=O)OC(CC(=O)[O-])C[N+](C)(C)C [(R)-Butyrylcarnitine]
92 | 8.55 min | CN(C)C(N)=NCCCC(N)C(=O)O (centres undefined) [ADMA]
93 | 1.11 min | CC(C)C1=CC2=CCC3C(C)(C(=O)O)CCCC3(C)C2CC1 (centres undefined) [Abietic acid]
94 | 1.33 min | CC(C=CC1(O)C(C)=CC(=O)CC1(C)C)=CC(=O)O (centres undefined) [Abscisic acid]
